Values of other authors, collected in patent US12594435B2, “Interstitial photodynamic therapy” (Simphotek, Inc., priority 2020, dated 2026).
Like-named read-outs stand apart in the source and are kept apart here.

Experiments:
[1] = test system: tumors in mice; settings: for Threshold [^1O2]dose: superficial PDT
[2] = test system: Human prostate; settings: Davidson et.al., 2009
[3] = for β, k4/k2 / ξ photokinetic parameter / σ, k1/(k7[A]): Table 6, Zhu et. al. 2015, Ong et al 2018
[4] = test system: experimental tumours; settings: Rabbits, Shafirstein et. al., 2018
[5] = test system: experimental tumours; settings: Mice, Shafirstein et. al., 2018
[6] = I-PDT with light dose as dose metric
[7] = Zhu et. al., 2015, labeled [^1O2]rx in the publication
[8] = surface PDT, Sheng et. al., 2019
[9] = simulation parameter used in Dosie simulations, Examples 3 and 4
[10] = vascular PDT, Sheng et. al., 2020

For “2-(1-Hexyloxyethyl)-2-devinyl pyropheophorbide [HPPH]”, the “Threshold [^1O2]dose” value ([1]; Penjweini et. al., 2016) is listed as 0.98 ± 0.11 (Penjweini et. al., mM and the “Threshold PDT-dose” value ([1]; surface PDT, Penjweini et. al., 2016) is listed as 52.62 ± 14.9 (Penjweini et. al., μM J/cm^2.
For CC[C@H]1c2cc3[n-]c4c(c3C)C(=O)[C@H](C(=O)OC)c4c3nc(cc4[n-]c(cc(n2)[C@@H]1C)c(C(C)=O)c4C)[C@@H](C)[C@@H]3CCC(=O)O.[Pd+2] [Tookad], the “Threshold Light Dose” value [2] is listed as >23 (Davidson et.al., 2009) J/cm^2, the “β, k4/k2” value [3] is listed as “Tookad: 11.9 μM” and the ξ photokinetic parameter [3] is listed as “Tookad: 122 × 10^−3 cm^2mW^−1s^−1”. The “σ, k1/(k7[A])” value [3] was “Tookad: 2.6 × 10^−5 μM^−1”.
In the case of Oc1cccc(-c2c3nc(c(-c4cccc(O)c4)c4ccc([nH]4)c(-c4cccc(O)c4)c4nc(c(-c5cccc(O)c5)c5ccc2[nH]5)CC4)C=C3)c1 [mTHPC], the “ε, PS extinction coefficient” value ([3]; 650 nm) is listed as “mTHPC (650 nm): 0.048 cm^−1μM^−1”, the “β, k4/k2” value [3] is listed as “mTHPC: 8.7 μM” and the ξ photokinetic parameter [3] is listed as “mTHPC: 30.0 × 10^−3 cm^2mW^−1s^−1”. The “σ, k1/(k7[A])” value [3] was “mTHPC: 2.97 × 10^−5 μM^−1”.
For Photofrin, the “Threshold Fluence Rate φT” value [4, 6] is given as 16.5 (Shafirstein et. al., 2018) mW/cm^2, the “Threshold Light Dose” value ([4]; I-PDT) is given as ≥45 (Shafirstein et. al., 2018) J/cm^2 and the “Threshold [^1O2]dose” value ([1]; Qiu et. al., 2016) is given as > 1.0 (Qiu et. al., 2016) mM. For the same compound, the “Threshold [^1O2]dose” value [1, 7] was 0.56 ± 0.26 (Zhu et. al., 2015) mM, the “Threshold Light Dose” value [1, 8] was “Approx. 100 (Sheng et. al., 2019) J/cm^2” and the “Threshold PDT-dose” value [1, 8] was 439 (Sheng et. al., 2019) μM J/cm^2. The “ε, PS extinction coefficient” value ([3]; 630 nm) was “Photofrin (630 nm): 0.0035 cm^−1μM^−1”, the “β, k4/k2” value [3] was “Photofrin: 11.9 μM” and the ξ photokinetic parameter [3] was “Photofrin: 3.7 × 10^−3 cm^2mW^−1s^−1”. For the same compound, the “σ, k1/(k7[A])” value [3] was “Photofrin: 7.6 × 10^−5 μM^−1”, the β [3, 9] was 11.9 and the “δ, low concentration correction” value [3, 9] was 33. The ξ [3, 9] was 3.7E-03, the σ [3, 9] was 7.6E-05 and the “Threshold Fluence Rate φT” value [5, 6] was 8.4 (Shafirstein et. al., 2018) mW/cm^2. The “Threshold Light Dose” value ([5]; I-PDT) was ≥45 (Shafirstein et. al., 2018) J/cm^2.
For “benzoporphyrin derivative monoacid ring A [BPD]”, the “Threshold [^1O2]dose” value ([1]; Kim et. al. 2017) is given as 0.98 ± 012 (Kim et. al. 2017) mM, the “Threshold [^1O2]dose” value [1, 7] is given as 0.72 ± 0.21 (Zhu et. al., 2015) mM and the “Threshold PDT-dose” value ([1]; surface PDT, Kim et. al., 2017) is given as 58 ± 12 (Kim et. al., 2017) μM J/cm^2. For the same compound, the “Threshold Light Dose” value [1, 10] was “Approx. 40 (vascular, Sheng et. J/cm^2”, the “Threshold PDT-dose” value [1, 10] was 7.5 (vascular, Sheng et. al., μM J/cm^2 and the “ε, PS extinction coefficient” value ([3]; 690 nm) was “BPD (690 nm): 0.0783 cm^−1μM^−1”. The “β, k4/k2” value [3] was “BPD: 11.9 μM”, the ξ photokinetic parameter [3] was “BPD: 51.0 × 10^−3 cm^2mW^−1s^−1” and the “σ, k1/(k7[A])” value [3] was “BPD: 1.7 × 10^−5 μM^−1”.
